What all share (assay): NCI-60 cell line screen, 48 h
In assay [1] the test system is DMS-273.
Assay [2] relates to LXFL 529.
The subject of assay [3] is SNB-78.
Assay [4] has as its system KM-20L2.
Assay [5] deals with M19-MEL.
The subject of assay [6] is HOP-18.
In assay [7] the test system is DMS-114.
Assay [8] deals with RXF 631.
The test system of assay [9] is XF498.

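Five compound concentrations were applied to cells in 96-well plates for 48 hours; endpoints were derived by simple linear interpolation of the resulting dose-response curve. GI50: concentration for 50% inhibition of growth.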 Calls of active or inactive are those of the source. Rule as the data show it: active = GI50 up to about 1.1 µM and inactive = higher.

Regarding `Nc1nc(O)c2c(ncn2CC(O)CO)n1` (centres undefined), the GI50 in assay [1], in assay [2], in assay [3], in [4], in [5] and in [6] was > 100 µM (inactive) in each case. In addition, the GI50 in assay [7] and in [8] was > 100 µM (inactive) throughout.

On to `CCN(CC)CC(C)(C)C(=O)/C=C/c1ccc(/C=C/C(=O)C(C)(C)CN(CC)CC)cc1`, for which the GI50 was 0.234 µM (active) in assay [1]; 0.188 µM (active) in [2]; 1.41 µM (inactive) in assay [3]; 0.617 µM (active) in assay [4]; 0.687 µM (active) in assay [5]; 0.317 µM (active) in assay [9]. Moreover, the GI50 in assay [7] is 0.266 µM (active).

`CCOC(=O)C(C)(C)Oc1ccc2c(-c3ccc(Cl)cc3)c(-c3ccc(Cl)cc3)c(=O)oc2c1`: the GI50 in [1], in assay [2], in assay [4], in [5], in [7] and in [8] was > 100 µM (inactive) in each case.

On to `CCOc1ccccc1Nc1nc(C)c(C(=O)CC(=O)C(=O)Nc2ccccc2)s1`, for which the GI50 was 54.2 µM (inactive) in [1]; 43.3 µM (inactive) in assay [2]; > 100 µM (inactive) in assay [3]; 66.4 µM (inactive) in [4]; 36.5 µM (inactive) in assay [5]; > 100 µM (inactive) in assay [6]. Further, the values for the GI50 in assay [9] and in assay [7] were 31.6 µM (inactive) and 35.5 µM (inactive), respectively.

Regarding `CC1(OCc2ccccc2)C(=O)N2C1N(C(=O)OCc1ccccc1)CC2(C)C` (centres undefined), the GI50 was 53.6 µM (inactive) in [1]; 31.6 µM (inactive) in [2]; 55.8 µM (inactive) in [4]; 32.1 µM (inactive) in assay [5]; 24.8 µM (inactive) in assay [9]; 31.3 µM (inactive) in assay [7].

In the case of `CCN(CC)C(=O)N1CCN(C=S)CC1`, the GI50 in assay [1], in assay [2], in assay [3], in [4], in assay [5] and in [6] was > 100 µM (inactive) in each case. In addition, the GI50 in [7] is > 100 µM (inactive).

On to `Cn1nc2ccc3nccc(NCCNCCO)c3c2n1`, for which the GI50 is 39.2 µM (inactive) in assay [2]; 36.2 µM (inactive) in assay [3]; 25.8 µM (inactive) in assay [4]; 40.4 µM (inactive) in assay [5]; 35 µM (inactive) in assay [9].

In the case of `N#Cc1cc([N+](=O)[O-])ccc1NC(=O)C(=O)Nn1c(S)nc2ccccc2c1=O`, the GI50 in assay [2], in assay [3], in assay [4], in assay [5], in assay [6] and in [9] was > 100 µM (inactive) in each case. Besides, the GI50 in assay [8] is > 100 µM (inactive).

On to `CCOC(=O)C(C)(C)Oc1ccc2c(-c3ccccc3)cc(=O)oc2c1`, for which the GI50 in [1] was 29 µM (inactive); in assay [2] it was 25.3 µM (inactive); in assay [4], 30.6 µM (inactive); in [5], 32.2 µM (inactive); in assay [9], 16.4 µM (inactive); in assay [7], 21.9 µM (inactive).

As to `CC(=O)N1CCC2(C=Nc3ccccc32)CC1`, the GI50 in assay [1], in assay [2], in assay [3], in assay [4], in [5] and in assay [6] was > 100 µM (inactive) each time. The GI50 in [9] and in [7] was > 100 µM (inactive) each time.

On to `O=[N+]([O-])c1ccc(-c2ccc(C3=Nn4c(CNc5ccccc5Cl)nnc4SC3)o2)cc1`, for which the GI50 in assay [1] was > 100 µM (inactive); in assay [2], 82.4 µM (inactive); in [3], > 100 µM (inactive); in assay [4], > 100 µM (inactive); in assay [5], > 100 µM (inactive); in assay [9], > 100 µM (inactive).

As for `CC1=C(C(=O)Nc2ccccc2)C(c2ccc(N(C)C)cc2)C(C(=O)Nc2ccccc2)=C(C)N1`, the GI50 in assay [1] is 0.428 µM (active); in assay [2], 0.175 µM (active); in [3], > 37.1 µM (inactive); in assay [4], 0.439 µM (active); in assay [5], 0.685 µM (active); in assay [6], > 100 µM (inactive). In addition, the values for the GI50 in assay [9] and in assay [7] were > 100 µM (inactive) and 0.211 µM (active), respectively.

On to `NNC(=O)C(=O)N/N=C1/CCCC1C(=O)CCC(=O)Nc1ccc(Cl)cc1` (centres undefined), for which the GI50 in assay [1] is 37.3 µM (inactive); in assay [2], 20.6 µM (inactive); in assay [3], > 100 µM (inactive); in [4] it was 6.04 µM (inactive); in [5], 89.3 µM (inactive); in assay [6], > 100 µM (inactive). The figures for the GI50 in [9], in assay [7] and in [8] were > 100 µM (inactive), 63 µM (inactive) and > 100 µM (inactive), respectively.

For `Cc1cccc(C(C)C)c1NC(=O)CCl`, the GI50 in [1] was 69.2 µM (inactive); in assay [2] it was 76.7 µM (inactive); in assay [3], 48.9 µM (inactive); in assay [4] it was 45.4 µM (inactive); in assay [5], 51.6 µM (inactive); in assay [6], 53.7 µM (inactive). Further, the GI50 in assay [7] was 20.8 µM (inactive).

For the compound `COc1ccc(NC(=O)C2C(=O)N(c3ccc(OC)cc3)C(=O)/C2=N/O)cc1` (centres undefined), the GI50 in assay [1] was 26.8 µM (inactive); in assay [2], 25.2 µM (inactive); in assay [3], 46.8 µM (inactive); in assay [4], 48 µM (inactive); in assay [5] it was 26.5 µM (inactive); in [6], 17.9 µM (inactive). For the same compound, the GI50 in [9] was 14 µM (inactive); in [7], 35.6 µM (inactive).

Take `c1ccc2c(c1)N=C(c1cccc3ccccc13)CC(c1ccc3c(c1)OCO3)S2` (centres undefined): the GI50 in assay [1], in assay [2], in assay [3], in assay [4], in assay [5] and in assay [6] was > 100 µM (inactive) throughout. The GI50 in assay [9] and in [8] was > 100 µM (inactive) in each case.

In the case of `CN(C)CCNC(=O)c1cccc2c1nc(-c1ccc(F)cc1)c1ccccc12`, the GI50 in assay [1] was 2.15 µM (inactive); in assay [3], 10.7 µM (inactive); in assay [5], 5.52 µM (inactive); in assay [6], 14.4 µM (inactive); in assay [7] it was 4.42 µM (inactive).

On to `CC(=O)/C(=N\O)C(=O)NCc1ccccc1`, for which the GI50 in assay [1] was > 100 µM (inactive); in assay [2], > 100 µM (inactive); in assay [3], > 100 µM (inactive); in assay [4] it was > 100 µM (inactive); in assay [6], > 100 µM (inactive); in assay [7], 29.4 µM (inactive). The GI50 in assay [8] is > 100 µM (inactive).

In the case of `C=CC(Br)(CBr)CCC(Br)C(C)(C)Br` (centres undefined), the GI50 in assay [1] is 10.7 µM (inactive); in assay [2] it was 14.5 µM (inactive); in [3], 5.56 µM (inactive); in assay [5], 14.3 µM (inactive); in [6] it was 15.5 µM (inactive); in [7], 11.6 µM (inactive).

For the compound `[O-][S+](c1ccc(O)cc1)c1ccc(O)cc1`, the GI50 in [1], in assay [4], in [5], in assay [9], in [7] and in assay [8] was > 100 µM (inactive) throughout.

Turning to `CC[C@]12C=CCN3CCC4(c5cc([C@@]6(C(=O)OC)CC7CN(CCc8c6[nH]c6ccccc86)C[C@@H]6CCCC[C@H]76)c(OC)cc5N(C)C4[C@](O)(C(=O)OC)C1OC(C)=O)[C@@H]32` (some centres undefined), the GI50 in assay [1], in assay [2], in assay [3], in assay [4], in [5] and in assay [9] was < 0.01 µM (active) throughout. In addition, the GI50 in assay [7] is < 0.01 µM (active).

For the compound `CCCCCCCCCC[C@@H](O)[C@@H]1CC[C@@H]([C@@H]2CC[C@@H]([C@@H](O)CCCCCCCCCC[C@H](O)CC3=CC(C)OC3=O)O2)O1` (some centres undefined), the GI50 in assay [1] was 2.36 µM (inactive); in [2], 3.82 µM (inactive); in assay [3] it was 3.8 µM (inactive); in [4], 13.6 µM (inactive); in assay [5], 2.22 µM (inactive); in assay [7] it was < 0.01 µM (active). In addition, the GI50 in assay [8] is 1.97 µM (inactive).

As for `CC(=O)O[C@@]12CO[C@@H]1C[C@H](O)[C@@]1(C)C(=O)[C@H](O)C3=C(C)[C@@H](OC(=O)[C@H](O)[C@@H](NC(=O)OC(C)(C)C)c4ccccc4)C[C@@](O)([C@@H](OC(=O)c4ccccc4)[C@H]21)C3(C)C` [DOCETAXEL], the GI50 was < 0.01 µM (active) in assay [1]; < 0.01 µM (active) in assay [2]; < 0.01 µM (active) in assay [4]; < 0.01 µM (active) in assay [5]; 29.9 µM (inactive) in assay [6]; < 0.01 µM (active) in [7]. The GI50 in [8] is < 0.01 µM (active).

These data come from ChEMBL document CHEMBL1201862, “PubChem BioAssay data set” (2004).
